In ChEMBL document CHEMBL3621196, “Quinazolinedione SIRT6 inhibitors sensitize cancer cells to chemotherapeutics” (Eur J Med Chem, 2015):
Calls of active or inactive are those of the source. The calls are words filed in the database; no cut-off is given here.

Assays:
[1] = biological target: T1, NAD-dependent protein deacylase sirtuin-6 (Homo sapiens, UniProt Q8N6T7); experiment: Inhibition of human SIRT6 deacetylase activity using Arg-His-Lys-Lys(AC)-AMC as a substrate by fluorescence assay
[2] = biological target: T1, NAD-dependent protein deacylase sirtuin-6; experiment: Inhibition of human recombinant SIRT6 deacetylase activity using Arg-His-Lys-Lys(AC)-AMC as a substrate by […] assay
[3] = biological target: T1, NAD-dependent protein deacylase sirtuin-6; experiment: Inhibition of SIRT6 in human BxPC-3 cells assessed as increase in H3K9 acetylation by immunoblotting assay relative to control; format: cell-based
Homo sapiens [4] = organism: Homo sapiens; experiment: Selectivity ratio of IC50 for human SIRT1 to IC50 for human SIRT6
[5] = biological target: T1, NAD-dependent protein deacylase sirtuin-6; experiment: Competitive inhibition of human recombinant SIRT6 deacetylase activity using NAD+ as a substrate at 50 uM by double-reciprocal plot analysis
[6] = biological target: Protein Sirt6 (Rattus norvegicus) (UniProt A6K863); experiment: Inhibition of SIRT6 in rat L6 cells assessed as increase in radiolabelled glucose uptake at 100 uM after 18 hrs by fluorescence plate reader relative to control; format: cell-based
[7] = biological target: Protein Sirt6 (Rattus norvegicus) (UniProt A6K863); experiment: Inhibition of SIRT6 in rat L6 cells assessed as increase in 2-NBDG uptake at 100 uM after 18 hrs by fluorescence plate reader relative to control; format: cell-based
[8] = biological target: T1, NAD-dependent protein deacylase sirtuin-6; experiment: Competitive inhibition of human recombinant SIRT6 deacetylase activity using Arg-His-Lys-Lys(AC)-AMC as a substrate at 50 uM by double-reciprocal plot analysis
[9] = biological target: T2, NAD-dependent protein deacetylase sirtuin-2 (Homo sapiens, UniProt Q8IXJ6); experiment: Inhibition of human SIRT2 deacetylase activity using Arg-His-Lys-Lys(AC)-AMC as a substrate by fluorescence assay
T2 sequence (Q8IXJ6 whole entry): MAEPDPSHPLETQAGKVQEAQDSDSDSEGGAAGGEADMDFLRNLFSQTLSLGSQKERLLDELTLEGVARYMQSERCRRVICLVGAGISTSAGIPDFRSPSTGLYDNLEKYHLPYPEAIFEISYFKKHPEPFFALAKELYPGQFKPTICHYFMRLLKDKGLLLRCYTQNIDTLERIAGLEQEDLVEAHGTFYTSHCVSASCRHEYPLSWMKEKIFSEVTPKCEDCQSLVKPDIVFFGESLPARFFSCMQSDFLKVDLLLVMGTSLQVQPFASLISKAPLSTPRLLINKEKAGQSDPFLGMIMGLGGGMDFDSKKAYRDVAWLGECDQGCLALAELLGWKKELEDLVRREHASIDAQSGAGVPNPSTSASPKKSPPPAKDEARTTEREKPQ

[10] = biological target: T1, NAD-dependent protein deacylase sirtuin-6; experiment: Inhibition of SIRT6 in human BxPC-3 cells assessed as increase in radiolabelled glucose uptake at 100 uM after 18 hrs by fluorescence plate reader relative to control; format: cell-based
[11] = biological target: T3, NAD-dependent protein deacetylase sirtuin-1 (Homo sapiens, UniProt Q96EB6); experiment: Inhibition of human SIRT1 deacetylase activity using Arg-His-Lys-Lys(AC)-AMC as a substrate by fluorescence assay
T3 sequence (Q96EB6 whole entry): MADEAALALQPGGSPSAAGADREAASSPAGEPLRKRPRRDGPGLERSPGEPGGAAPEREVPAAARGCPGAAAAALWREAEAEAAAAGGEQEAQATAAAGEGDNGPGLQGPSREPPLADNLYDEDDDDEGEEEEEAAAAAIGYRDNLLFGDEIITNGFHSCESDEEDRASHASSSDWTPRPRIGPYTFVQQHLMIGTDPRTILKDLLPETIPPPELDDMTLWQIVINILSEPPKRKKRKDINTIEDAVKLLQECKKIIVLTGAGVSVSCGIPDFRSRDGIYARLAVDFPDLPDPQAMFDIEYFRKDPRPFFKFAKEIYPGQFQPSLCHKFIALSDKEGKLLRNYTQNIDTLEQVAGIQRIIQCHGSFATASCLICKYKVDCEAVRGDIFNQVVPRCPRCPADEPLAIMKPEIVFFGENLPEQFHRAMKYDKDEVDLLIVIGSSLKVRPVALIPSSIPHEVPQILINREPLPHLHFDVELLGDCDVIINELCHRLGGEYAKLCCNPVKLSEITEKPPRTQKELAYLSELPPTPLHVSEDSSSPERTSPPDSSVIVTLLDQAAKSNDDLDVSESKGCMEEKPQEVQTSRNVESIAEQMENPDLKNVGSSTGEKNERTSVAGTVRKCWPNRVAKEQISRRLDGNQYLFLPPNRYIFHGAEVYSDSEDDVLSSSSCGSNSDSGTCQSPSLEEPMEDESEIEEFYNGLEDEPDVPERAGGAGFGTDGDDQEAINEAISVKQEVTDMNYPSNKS

[12] = Cytotoxicity against human BxPC3 cells assessed as cell viability at 30 uM after 72 hrs by CellTiter96 Aqueous1 assay; format: cell-based, BXPC-3
Homo sapiens [13] = organism: Homo sapiens; experiment: Selectivity ratio of IC50 for human SIRT2 to IC50 for human SIRT6
[14] = biological target: T1, NAD-dependent protein deacylase sirtuin-6; experiment: Inhibition of SIRT6 in human PBMC assessed as inhibition of PHA-induced TNF alpha production at 100 uM after 3 days by ELISA
[15] = biological target: T1, NAD-dependent protein deacylase sirtuin-6; experiment: Inhibition of human SIRT6 in […] Capan1 cells assessed as potentiation of NU1025-induced cytotoxicity by measuring cell viability at 100 uM after 7 days by CellTiter96 Aqueous1 assay; format: cell-based; conditions: CAPAN-1
[16] = Cytotoxicity against human HEK293 cells assessed as cell viability using propidium iodide by flow cytometry; format: cell-based; conditions: read-out: Activity
[17] = biological target: T1, NAD-dependent protein deacylase sirtuin-6; experiment: Inhibition of human SIRT6 in BRCA2-deficient Capan1 cells assessed as potentiation of olaparib-induced DNA damage by measuring cell viability at 100 uM after 7 days by CellTiter96 Aqueous1 assay; format: cell-based; conditions: CAPAN-1
[18] = biological target: T1, NAD-dependent protein deacylase sirtuin-6; experiment: Inhibition of SIRT6 in human BxPC3 cells assessed as reduction in TNF alpha production by ELISA; format: cell-based; conditions: BXPC-3, concentration not given here
[19] = biological target: T1, NAD-dependent protein deacylase sirtuin-6; experiment: Inhibition of SIRT6 in human BxPC3 cells assessed as potentiation of gemcitabine-induced cytotoxicity by measuring cell viability at 30 uM by CellTiter96 Aqueous1 assay; format: cell-based; conditions: BXPC-3
[20] = biological target: T1, NAD-dependent protein deacylase sirtuin-6; experiment: Inhibition of SIRT6 in human PBMC assessed as inhibition of MLR-induced TNF alpha production at 100 uM after 3 days by ELISA
[21] = biological target: T1, NAD-dependent protein deacylase sirtuin-6; experiment: Inhibition of human SIRT6 in BRCA2-deficient Capan1 cells assessed as potentiation of olaparib-induced DNA damage by measuring gammaH2AX levels at 100 uM after 24 hrs by confocal microscopy; format: cell-based; conditions: CAPAN-1
[22] = biological target: T1, NAD-dependent protein deacylase sirtuin-6; experiment: Inhibition of SIRT6 in human PBMC assessed as inhibition of MLR-induced TNF alpha production at 200 uM after 3 days by ELISA
[23] = biological target: T1, NAD-dependent protein deacylase sirtuin-6; experiment: Inhibition of SIRT6 in human PBMC assessed as inhibition of PHA-induced TNF alpha production at 200 uM after 3 days by ELISA
CAPAN-1 [24] = experiment: Induction of DNA damage in human BRCA2-deficient Capan1 cells assessed as increase in gammaH2AX levels at 100 uM after 24 hrs by confocal microscopy; format: functional, cell-based
CAPAN-1 [25] = experiment: Induction of DNA damage in human BRCA2-deficient Capan1 cells assessed as increase in gammaH2AX levels at 100 uM after 24 hrs by flow cytometry analysis; format: functional, cell-based
[26] = biological target: T1, NAD-dependent protein deacylase sirtuin-6; experiment: Inhibition of human SIRT6 in BRCA2-deficient Capan1 cells assessed as potentiation of olaparib-induced DNA damage by measuring gammaH2AX levels at 100 uM after 24 hrs by flow cytometry analysis; format: cell-based; conditions: CAPAN-1

Protein Sirt6 (Rattus norvegicus), sequence (A6K863 as listed by the source): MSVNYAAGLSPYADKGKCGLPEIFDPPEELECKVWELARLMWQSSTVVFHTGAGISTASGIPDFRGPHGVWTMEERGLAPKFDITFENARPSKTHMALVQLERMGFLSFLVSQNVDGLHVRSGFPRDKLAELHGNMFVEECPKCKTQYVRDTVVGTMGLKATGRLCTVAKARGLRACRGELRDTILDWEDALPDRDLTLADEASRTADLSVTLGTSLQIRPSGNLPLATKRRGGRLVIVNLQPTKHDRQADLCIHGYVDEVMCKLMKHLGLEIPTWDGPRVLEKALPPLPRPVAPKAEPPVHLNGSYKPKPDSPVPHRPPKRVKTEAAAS
T1 sequence (Q8N6T7 whole entry): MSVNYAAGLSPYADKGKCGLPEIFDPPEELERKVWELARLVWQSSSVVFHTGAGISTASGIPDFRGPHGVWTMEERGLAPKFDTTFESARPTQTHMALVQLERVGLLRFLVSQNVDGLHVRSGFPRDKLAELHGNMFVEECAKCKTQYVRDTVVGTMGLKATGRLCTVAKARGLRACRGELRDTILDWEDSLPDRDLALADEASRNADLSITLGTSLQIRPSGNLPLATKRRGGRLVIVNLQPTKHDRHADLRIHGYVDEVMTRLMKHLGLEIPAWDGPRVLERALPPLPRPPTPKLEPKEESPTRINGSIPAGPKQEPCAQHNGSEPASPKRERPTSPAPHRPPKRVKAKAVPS

O=C1CCc2cc(S(=O)(=O)Nc3ccc(Oc4cccnc4)cc3)ccc2N1
IC50 [1]: 270 µM
IC50 [2]: 275 µM

O=c1[nH]c(=O)c2cc(S(=O)(=O)Nc3ccc(Oc4ccccc4)cc3)ccc2[nH]1
IC50 [2]: 127 µM

O=c1[nH]c(=O)c2cc(S(=O)(=O)NCc3cccc(Cn4ccnc4)c3)ccc2[nH]1
IC50 [2]: 2870 µM

Cn1c(=O)c2cc(S(=O)(=O)Nc3ccc(Cc4ccncc4)cc3)ccc2n(C)c1=O
fold increase in H3K9 acetylation [3]: 1.6 fold
IC50 [1]: 49 µM
Ratio IC50 (Homo sapiens [4]): 133
inhibition [5]: Active
IC50 [2]: 38 µM
fold increase in glucose uptake [6]: 4 fold
fold increase in 2-NBDG uptake [7]: 3.1 fold
inhibition [8]: Active
IC50 [9]: 242 µM
fold increase in glucose uptake [10]: 1.9 fold
IC50 [11]: 6520 µM
viability at 72 h, 30 µM ([12]; BxPC3 cells, read-out: Activity): 75%
Ratio IC50 (Homo sapiens [13]): 4.94

O=c1[nH]c(=O)c2cc(S(=O)(=O)Nc3cccc(CCc4ccncc4)c3)ccc2[nH]1
inhibition [14]: 44%
fold increase in H3K9 acetylation [3]: 1.4 fold
IC50 [1]: 37 µM
Ratio IC50 (Homo sapiens [4]): 11.5
Activity [15]: Active
viability [16]: > 80%
inhibition [5]: Active
IC50 [2]: 55 µM
fold increase in glucose uptake [6]: 2.8 fold
fold increase in 2-NBDG uptake [7]: 1 fold
Activity [17]: Active
inhibition [8]: Active
inhibition [18]: 72%
IC50 [9]: 85 µM
fold increase in glucose uptake [10]: 1.2 fold
Activity [19]: Active
IC50 [11]: 424 µM
Activity ([12]; bxpc-3, 72 h, 30 µM): Non-toxic
Ratio IC50 (Homo sapiens [13]): 2.3
inhibition [20]: 27%

O=C1CCCN1c1ccc(S(=O)(=O)Nc2ccc(Oc3cccnc3)cc2)cc1
IC50 [1]: 441 µM

O=c1[nH]c(=O)c2cc(S(=O)(=O)Nc3ccc(Oc4cccnc4)cc3)ccc2[nH]1
Activity [21]: Active
fold increase in H3K9 acetylation [3]: 2.2 fold
Ratio IC50 (Homo sapiens [4]): 2.96
Activity [15]: Active
inhibition [22]: 47%
inhibition [23]: 52%
Activity (CAPAN-1 [24]): Active
Activity (CAPAN-1 [25]): Active
viability [16]: > 50%
inhibition [5]: Active
IC50 [2]: 136 µM
fold increase in glucose uptake [6]: 2 fold
fold increase in 2-NBDG uptake [7]: 2.4 fold
Activity [17]: Active
Activity [26]: Active
inhibition [8]: Active
inhibition [18]: 73%
fold increase in glucose uptake [10]: 1.3 fold
Ratio IC50 (Homo sapiens [13]): 1.07
